The data set is described as follows: Equilibrium solubility of the compound at pH 6.8. It counts as physicochemical. To be noted: buffer.

Values after ≈ are worked out from the molar mass of the structure shown.

Molecule `C[C@@H]1CN(c2nnc(Cc3ccccc3)c3c2CCC3)CCN1c1cnc(C(C)(C)O)cn1` came in with a solubility (thermodynamic) of 5 to 20 µM (≈ 2.22 to 8.89 µg/mL).
As for `CC(C)(O)c1cnc(N2CCN(c3nnc(Cc4ccccc4)c4c3CCC4)CC2)cn1`, the figure is below 5 µM.

Values taken from ChEMBL document CHEMBL3882730, “Organic Compounds as Smo Inhibitors” (2010).
